Source: PubChem BioAssay (NCI)
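In this assay, cells in 96-well plates receive the compound at five concentrations for 48 hours. Endpoints are linearly interpolated between the surrounding concentrations. TGI: total growth inhibition.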

Tests used:
Assay in all cases: NCI tumour cell line growth inhibition, 48 h
U251 CNS = tested on: U251 CNS
COLO 205 colon = tested on: COLO 205 colon
DMS 114 small cell lung = tested on: DMS 114 small cell lung
A549 NSCLC = tested on: A549 NSCLC
HOP-62 NSCLC = tested on: HOP-62 NSCLC
OVCAR-3 ovarian = tested on: OVCAR-3 ovarian
LXFL 529 NSCLC = tested on: LXFL 529 NSCLC
KM12 colon = tested on: KM12 colon
SNB-78 CNS = tested on: SNB-78 CNS
SK-MEL-2 melanoma = tested on: SK-MEL-2 melanoma
SNB-75 CNS = tested on: SNB-75 CNS
TK-10 renal = tested on: TK-10 renal
SR leukemia = tested on: SR leukemia
SF-268 CNS = tested on: SF-268 CNS
SW-620 colon = tested on: SW-620 colon
OVCAR-5 ovarian = tested on: OVCAR-5 ovarian
UO-31 renal = tested on: UO-31 renal
NCI-H23 lung = tested on: NCI-H23 lung
SNB-19 CNS = tested on: SNB-19 CNS
SK-MEL-5 melanoma = tested on: SK-MEL-5 melanoma
SK-MEL-28 melanoma = tested on: SK-MEL-28 melanoma
RPMI-8226 leukemia = tested on: RPMI-8226 leukemia
HCT-15 colon = tested on: HCT-15 colon
IGROV1 ovarian = tested on: IGROV1 ovarian
NCI-H460 lung = tested on: NCI-H460 lung
EKVX NSCLC = tested on: EKVX NSCLC
UACC-257 melanoma = tested on: UACC-257 melanoma
HOP-18 NSCLC = tested on: HOP-18 NSCLC
OVCAR-4 ovarian = tested on: OVCAR-4 ovarian
HCC-2998 colon = tested on: HCC-2998 colon
RXF 393 renal = tested on: RXF 393 renal
ACHN renal = tested on: ACHN renal
HT29 colon = tested on: HT29 colon
M19-MEL melanoma = tested on: M19-MEL melanoma
SF-539 CNS = tested on: SF-539 CNS
M14 melanoma = tested on: M14 melanoma
UACC-62 melanoma = tested on: UACC-62 melanoma
SN12C renal = tested on: SN12C renal
LOX IMVI melanoma = tested on: LOX IMVI melanoma
HOP-92 NSCLC = tested on: HOP-92 NSCLC
HCT-116 colon = tested on: HCT-116 colon
OVCAR-8 ovarian = tested on: OVCAR-8 ovarian
DMS 273 small cell lung = tested on: DMS 273 small cell lung
KM20L2 colon = tested on: KM20L2 colon
MOLT-4 leukemia = tested on: MOLT-4 leukemia
HL-60(TB) leukemia = tested on: HL-60(TB) leukemia
K-562 leukemia = tested on: K-562 leukemia
CCRF-CEM leukemia = tested on: CCRF-CEM leukemia
DLD-1 colon = tested on: DLD-1 colon
SF-295 CNS = tested on: SF-295 CNS
NCI-H226 lung = tested on: NCI-H226 lung
786-0 renal = tested on: 786-0 renal
A498 renal = tested on: A498 renal
NCI-H522 lung = tested on: NCI-H522 lung
SK-OV-3 ovarian = tested on: SK-OV-3 ovarian
CAKI-1 renal = tested on: CAKI-1 renal
MALME-3M melanoma = tested on: MALME-3M melanoma
MDA-MB-231 breast = tested on: MDA-MB-231 breast
NCI/ADR-RES ovarian = tested on: NCI/ADR-RES ovarian
MCF7 breast = tested on: MCF7 breast
PC-3 prostate = tested on: PC-3 prostate
HS 578T breast = tested on: HS 578T breast
T-47D breast = tested on: T-47D breast
DU-145 prostate = tested on: DU-145 prostate
MDA-N = tested on: MDA-N
BT-549 breast = tested on: BT-549 breast
MDA-MB-435 = tested on: MDA-MB-435

COc1ccc(-c2nnc(-c3nsc4ccccc34)o2)cc1
TGI (U251 CNS): > 100 µM | TGI (COLO 205 colon): > 100 µM | TGI (DMS 114 small cell lung): > 100 µM | TGI (A549 NSCLC): > 100 µM | TGI (HOP-62 NSCLC): > 100 µM | TGI (OVCAR-3 ovarian): 92.6 µM | TGI (LXFL 529 NSCLC): > 100 µM | TGI (KM12 colon): > 100 µM | TGI (SNB-78 CNS): > 100 µM | TGI (SK-MEL-2 melanoma): > 100 µM | TGI (SNB-75 CNS): 83.4 µM | TGI (TK-10 renal): > 100 µM | TGI (SR leukemia): > 100 µM | TGI (SF-268 CNS): > 100 µM | TGI (SW-620 colon): > 100 µM | TGI (OVCAR-5 ovarian): > 100 µM | TGI (UO-31 renal): > 100 µM | TGI (NCI-H23 lung): > 100 µM | TGI (SNB-19 CNS): > 100 µM | TGI (SK-MEL-5 melanoma): > 100 µM | TGI (SK-MEL-28 melanoma): > 100 µM | TGI (RPMI-8226 leukemia): 71.4 µM | TGI (HCT-15 colon): > 100 µM | TGI (IGROV1 ovarian): > 100 µM | TGI (NCI-H460 lung): > 100 µM | TGI (EKVX NSCLC): > 100 µM | TGI (UACC-257 melanoma): > 100 µM | TGI (HOP-18 NSCLC): > 100 µM | TGI (OVCAR-4 ovarian): > 100 µM | TGI (HCC-2998 colon): > 100 µM | TGI (RXF 393 renal): 93.9 µM | TGI (ACHN renal): > 100 µM | TGI (HT29 colon): > 100 µM | TGI (M19-MEL melanoma): > 100 µM | TGI (SF-539 CNS): > 100 µM | TGI (M14 melanoma): > 100 µM | TGI (UACC-62 melanoma): > 100 µM | TGI (SN12C renal): > 100 µM | TGI (LOX IMVI melanoma): > 100 µM | TGI (HOP-92 NSCLC): > 100 µM | TGI (HCT-116 colon): > 100 µM | TGI (OVCAR-8 ovarian): > 100 µM | TGI (DMS 273 small cell lung): > 100 µM | TGI (KM20L2 colon): > 100 µM

CC1=CP(=O)(OC(C)C)CC(C)=C1Cl (configuration not stated)
TGI (U251 CNS): > 100 µM | TGI (COLO 205 colon): > 100 µM | TGI (MOLT-4 leukemia): > 100 µM | TGI (DMS 114 small cell lung): > 100 µM | TGI (A549 NSCLC): > 100 µM | TGI (HOP-62 NSCLC): > 100 µM | TGI (OVCAR-3 ovarian): > 100 µM | TGI (LXFL 529 NSCLC): > 100 µM | TGI (HL-60(TB) leukemia): > 100 µM | TGI (KM12 colon): > 100 µM | TGI (SNB-78 CNS): > 100 µM | TGI (K-562 leukemia): > 100 µM | TGI (SK-MEL-2 melanoma): > 100 µM | TGI (SNB-75 CNS): > 100 µM | TGI (TK-10 renal): > 100 µM | TGI (CCRF-CEM leukemia): > 100 µM | TGI (SR leukemia): > 100 µM | TGI (SF-268 CNS): > 100 µM | TGI (SW-620 colon): > 100 µM | TGI (DLD-1 colon): > 100 µM | TGI (OVCAR-5 ovarian): > 100 µM | TGI (SF-295 CNS): > 100 µM | TGI (UO-31 renal): > 100 µM | TGI (NCI-H23 lung): > 100 µM | TGI (SNB-19 CNS): > 100 µM | TGI (SK-MEL-5 melanoma): > 100 µM | TGI (SK-MEL-28 melanoma): > 100 µM | TGI (RPMI-8226 leukemia): > 100 µM | TGI (NCI-H226 lung): > 100 µM | TGI (786-0 renal): > 100 µM | TGI (A498 renal): > 100 µM | TGI (IGROV1 ovarian): > 100 µM | TGI (NCI-H522 lung): > 100 µM | TGI (NCI-H460 lung): > 100 µM | TGI (EKVX NSCLC): > 100 µM | TGI (UACC-257 melanoma): > 100 µM | TGI (HCC-2998 colon): > 100 µM | TGI (RXF 393 renal): > 100 µM | TGI (ACHN renal): > 100 µM | TGI (HT29 colon): > 100 µM | TGI (M19-MEL melanoma): > 100 µM | TGI (SF-539 CNS): > 100 µM | TGI (M14 melanoma): > 100 µM | TGI (SK-OV-3 ovarian): > 100 µM | TGI (UACC-62 melanoma): > 100 µM | TGI (CAKI-1 renal): > 100 µM | TGI (SN12C renal): > 100 µM | TGI (LOX IMVI melanoma): > 100 µM | TGI (HOP-92 NSCLC): > 100 µM | TGI (HCT-116 colon): > 100 µM | TGI (OVCAR-8 ovarian): > 100 µM | TGI (DMS 273 small cell lung): > 100 µM | TGI (KM20L2 colon): > 100 µM | TGI (MALME-3M melanoma): > 100 µM

O=C(/C=C/c1cccc2ccccc12)c1ccccc1
TGI (U251 CNS): 22 µM | TGI (COLO 205 colon): 48.6 µM | TGI (MDA-MB-231 breast): 25.5 µM | TGI (MOLT-4 leukemia): > 34.7 µM | TGI (A549 NSCLC): > 52.4 µM | TGI (HOP-62 NSCLC): 43 µM | TGI (OVCAR-3 ovarian): 22.4 µM | TGI (HL-60(TB) leukemia): > 21.2 µM | TGI (NCI/ADR-RES ovarian): 33.6 µM | TGI (KM12 colon): > 42.2 µM | TGI (K-562 leukemia): 8.69 µM | TGI (SK-MEL-2 melanoma): 34.2 µM | TGI (SNB-75 CNS): 30.6 µM | TGI (MCF7 breast): 15.1 µM | TGI (TK-10 renal): 17.6 µM | TGI (CCRF-CEM leukemia): 87.3 µM | TGI (SR leukemia): > 100 µM | TGI (SF-268 CNS): 32.6 µM | TGI (SW-620 colon): 15.5 µM | TGI (OVCAR-5 ovarian): 28.8 µM | TGI (SF-295 CNS): 35.1 µM | TGI (UO-31 renal): 16.3 µM | TGI (PC-3 prostate): 20.4 µM | TGI (NCI-H23 lung): 28 µM | TGI (SNB-19 CNS): 30.2 µM | TGI (SK-MEL-5 melanoma): 28.4 µM | TGI (SK-MEL-28 melanoma): 33.6 µM | TGI (HS 578T breast): > 74.9 µM | TGI (T-47D breast): 27.3 µM | TGI (DU-145 prostate): 29 µM | TGI (RPMI-8226 leukemia): 7.98 µM | TGI (NCI-H226 lung): 27.9 µM | TGI (786-0 renal): 23.5 µM | TGI (HCT-15 colon): 23.1 µM | TGI (A498 renal): 33.3 µM | TGI (IGROV1 ovarian): 20.5 µM | TGI (NCI-H522 lung): 25.2 µM | TGI (NCI-H460 lung): 37.2 µM | TGI (EKVX NSCLC): 26.3 µM | TGI (UACC-257 melanoma): 29.7 µM | TGI (OVCAR-4 ovarian): 27.1 µM | TGI (HCC-2998 colon): 34.1 µM | TGI (RXF 393 renal): 27.5 µM | TGI (MDA-N): 23.9 µM | TGI (ACHN renal): 26.9 µM | TGI (HT29 colon): 15.8 µM | TGI (SF-539 CNS): 15.6 µM | TGI (M14 melanoma): 32.9 µM | TGI (BT-549 breast): 28.5 µM | TGI (SK-OV-3 ovarian): 34.2 µM | TGI (UACC-62 melanoma): 25.3 µM | TGI (CAKI-1 renal): 28 µM | TGI (SN12C renal): 24.9 µM | TGI (LOX IMVI melanoma): 4.53 µM | TGI (HOP-92 NSCLC): 33.6 µM | TGI (HCT-116 colon): 24.1 µM | TGI (OVCAR-8 ovarian): 21.6 µM | TGI (MDA-MB-435): 24.1 µM | TGI (MALME-3M melanoma): 26.9 µM
